Results as given in US9734575B2, “Method for assessing cell aging” (CHRONOS THERAPEUTICS LIMITED, priority 2013, dated 2017).

Tested on: AM134bus-5 mutant C. elegans
Experiment: FUDR treatment (transfer and topical) to prevent second generation progeny in synchronised worm populations on multi-well plates
Format: in vivo, Caenorhabditis elegans
Protocol: Topical and transfer methods of FUDR application were compared and the optimal concentration of the FUDR on 24 well, 12 well and 6 well plates, assessed.
AM134bus-5 and bus-8 drug sensitive worms were synchronized by bleaching and then plated onto multi-well plates and allowed to develop to adulthood. The adults in half of the wells were transferred to a separate well which had been soaked with varying amounts of FUDR solution using M9 buffer. The remaining wells were treated topically with FUDR.
The cultures were then regularly imaged by bright field microscopy and fed with OP50 when necessary.

## O=c1[nH]c(=O)n([C@H]2C[C@H](O)[C@@H](CO)O2)cc1F [FUDR, 2′-Deoxy-5-fluorouridine]
6 well plates, FUDR 2 μg/ml (25 μl of 10 mg/ml to 5 ml NGM), topical and transfer
  progeny after 11 days: no progeny can be observed
6 well plates, volume of 10 mg/ml FUDR to 5 ml of NGM, 1, 5, 10, 25 and 50 μl tested
  lowest effective dose at preventing the development of progeny: 25 µL
12 well plate (1.7 ug/ml in 2.5 ml NGM)
  optimal addition of 10 mg/ml FUDR per well for preventing progeny worms from developing: 0.015 mL
12 well plates, FUDR 1.7 μg/ml (15 μl of 10 mg/ml to 2.5 ml NGM), topical application
  progeny after 11 days: no progeny can be observed
12 well plates, volume of 10 mg/ml FUDR to 2.5 ml of NGM, 1, 5, 10, 15 and 20 μl tested
  lowest effective dose at preventing the development of progeny: 15 µL
24 well plates, FUDR 2 μg/ml (5 μl of 10 mg/ml to 1 ml NGM), topical and transfer method
  progeny after 11 days: progeny can be observed
